Patent US9278950B2, “Bicyclic aromatic carboxamide compounds useful as Pim kinase inhibitors” (Incyte Corporation, priority 2013, dated 2016)

Columns and labels:
Assay type in all cases: biochemical
[1] = target: T1, Pim-1 (Homo sapiens, UniProt P11309); test: Pim-1 kinase assay (Pim enzyme assays, Example A); conditions: 1 mM ATP; read-out: Pim1 IC50
T1 construct: purchased Invitrogen PV3503

[2] = target: T2, Pim2 (Homo sapiens, UniProt Q9P1W9); test: Pim-2 kinase assay (Pim enzyme assays, Example A); conditions: 1 mM ATP; read-out: Pim2 IC50
T2 construct: purchased Invitrogen PV3649
T2 sequence (Q9P1W9 whole entry): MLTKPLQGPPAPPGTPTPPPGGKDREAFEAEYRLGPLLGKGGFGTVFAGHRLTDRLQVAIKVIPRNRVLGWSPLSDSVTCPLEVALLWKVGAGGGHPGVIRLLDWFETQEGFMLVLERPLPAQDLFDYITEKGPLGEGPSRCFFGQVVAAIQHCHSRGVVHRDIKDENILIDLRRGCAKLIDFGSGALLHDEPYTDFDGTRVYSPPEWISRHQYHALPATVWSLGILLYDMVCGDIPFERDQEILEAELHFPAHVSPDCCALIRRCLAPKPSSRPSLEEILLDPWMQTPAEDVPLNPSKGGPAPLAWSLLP
In short: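 TR-FRET assay with 1 nM enzyme, 0.05 μM fluorescein-CREBtide and 1 mM ATP in Tris pH 7.5 buffer with MgCl2, DTT, BSA and Tween-20, run 2 h at 25° C. Stopped with EDTA and Tb-labelled anti-CREB pSer133 antibody, then read after 30 min at room temperature.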

[3] = target: T2, Pim2; test: Pim2 assay analogous to Example A performed under Km ATP conditions; conditions: Km ATP conditions rather than 1 mM ATP
Experimental: Pim-2 kinase assay—20 μL reactions were run in white 384 well polystyrene plates dotted with 0.8 μL compound/DMSO in the assay buffer (50 mM Tris, pH 7.5, 0.01% Tween-20, 5 mM mgCl2, 0.01% BSA, 5 mM DTT), containing 0.05 μM Fluorescein-labeled CREBtide peptide substrate (Invitrogen PV3508), 1 mM ATP, and 1 nM enzyme (Invitrogen PV3649) for 2 h at 25° C. Reactions were stopped by addition of 10 μL TR-FRET Dilution Buffer (Invitrogen PV3574) with 30 mM EDTA and 1.5 nM LanthaScreen Tb-CREB pSer133 antibody (Invitrogen PV3566). After 30 min. incubation at room temperature, plates were read on a PHERAstar FS plate reader (BMG Labtech).
Although the above in vitro assays are conducted at 1 mM ATP compounds can also be evaluated for potency and in vitro activity against PIM targets utilizing Km conditions, where the concentration of ATP is set to the Km value and the assay is more sensitive to PIM inhibition activity.

[4] = target: T3, Pim-3 (Homo sapiens, UniProt Q86V86); test: Pim-3 kinase assay (Pim enzyme assays, Example A); conditions: 1 mM ATP; read-out: Pim3 IC50
T3 construct: purchased Millipore 14-738

T1 sequence (P11309 whole entry): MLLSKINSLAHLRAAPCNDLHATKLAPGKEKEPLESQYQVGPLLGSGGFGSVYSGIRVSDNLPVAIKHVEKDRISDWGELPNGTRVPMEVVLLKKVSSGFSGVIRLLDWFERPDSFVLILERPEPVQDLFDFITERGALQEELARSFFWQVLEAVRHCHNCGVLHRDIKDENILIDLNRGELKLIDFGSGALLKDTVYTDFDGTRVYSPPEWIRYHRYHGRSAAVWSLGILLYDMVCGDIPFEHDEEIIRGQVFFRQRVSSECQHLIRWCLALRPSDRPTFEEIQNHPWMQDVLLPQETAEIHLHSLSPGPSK

IC50 [1] [nM] | IC50 [2] [nM] | IC50 [3] [nM] | IC50 [4] [nM] | Structure (SMILES)
> 40 | > 2000 | 100 to 1000 | > 40 | CCc1ccc2cc(N)c(C(=O)Nc3cnc4c(c3N3CCC[C@H](N)C3)CCC4O)nc2c1 (single isomer, unassigned) [22 isomer 1]
≤ 100 | 100 to 1000 | – | ≤ 100 | COC(=O)N[C@@H]1[C@H](N)CN(c2ccncc2NC(=O)c2nc3cc(C4CCOCC4)ccc3cc2N)C[C@@H]1C [Example 61, Methyl {(3R,4S,5S)-3-amino-1-[3-({[3-amino-7-(tetrahydro-2H-pyran-4-yl)quinolin-2-yl]carbonyl}amino)pyridin-4-yl]-5-methylpiperidin-4-yl}carbamate]
≤ 100 | 1000 to 10000 | – | ≤ 100 | COC(=O)N[C@@H]1[C@H](N)CN(c2ccncc2NC(=O)c2nc3cc(C4CCN(C)CC4)ccc3cc2N)C[C@@H]1C [Example 62, Methyl {(3R,4S,5S)-3-amino-1-[3-({[3-amino-7-(1-methylpiperidin-4-yl)quinolin-2-yl]carbonyl}amino)pyridin-4-yl]-5-methylpiperidin-4-yl}carbamate]

Further lines, the compound ahead of its results:

Structure (SMILES) | IC50 [1] [nM] | IC50 [2] [nM] | IC50 [3] [nM] | IC50 [4] [nM]
NC(=O)c1ccccc1-c1ccc2cc(N)c(C(=O)Nc3cnccc3N3CCC[C@H](N)C3)nc2c1 [Example 6, 3-Amino-7-[2-(aminocarbonyl)phenyl]-N-{4-[(3S)-3-aminopiperidin-1-yl]pyridin-3-yl}quinoline-2-carboxamide] | > 40 | > 2000 | < 100 | > 40
CCc1ccc2cc(N)c(C(=O)Nc3cnccc3N3C[C@@H](N)[C@@H](NC(=O)OC)[C@@H](C)C3)nc2c1 [Example 58, Methyl [(3R,4S,5S)-3-amino-1-(3-{[(3-amino-7-ethylquinolin-2-yl)carbonyl]amino}pyridin-4-yl)-5-methylpiperidin-4-yl]carbamate] | ≤ 100 | 100 to 1000 | – | ≤ 100
COC(=O)N[C@@H]1[C@H](N)CN(c2ccncc2NC(=O)c2nc3cc(N4CCOCC4)ccc3cc2N)C[C@@H]1C [Example 59, Methyl [(3R,4S,5S)-3-amino-1-(3-{[(3-amino-7-morpholin-4-ylquinolin-2-yl)carbonyl]amino}pyridin-4-yl)-5-methylpiperidin-4-yl]carbamate] | ≤ 100 | 1000 to 10000 | – | ≤ 100
COC(=O)N[C@@H]1[C@H](N)CN(c2ccncc2NC(=O)c2nc3cc(N4CCN(C)CC4)ccc3cc2N)C[C@@H]1C [Example 60, Methyl {(3R,4S,5S)-3-amino-1-[3-({[3-amino-7-(4-methylpiperazin-1-yl)quinolin-2-yl]carbonyl}amino)pyridin-4-yl]-5-methylpiperidin-4-yl}carbamate] | ≤ 100 | 1000 to 10000 | – | ≤ 100
